Experimental findings from patent US20260176289A1, “SMALL MOLECULE INHIBITORS OF KRAS PROTEINS” (Merck Sharp & Dohme LLC, priority 2022, published 2026) are described below.

One assay deals with KRAS-G12V (Homo sapiens, UniProt P01116, G12V). Nature of the assay: SOS-catalyzed nucleotide exchange assay (Procedure A, TR-FRET), KRAS-G12V. Type of assay: biochemical. As to conditions: nucleotide exchange, read-out: KRAS G12V GNE IC50. Summed up: (§1)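 Biotinylated RAS (KRAS-G12C carries C51S/C80L/C118S; others WT background) preloaded with Bodipy-GDP plus Tb-streptavidin, preincubated with compound 60 min at RT, then human SOS and 3 mM GTP added. Final RAS/SOS: G12C 3 nM/40 nM, 60 min; WT 1 nM/40 nM, 60 min; G12V 1.25 nM/160 nM, 90 min; NRAS 1.25 nM/40 nM, 60 min. TR-FRET 520/495 ratio normalized to DMSO and saturating inhibitor; 10-point curves fit four-parameter logistic.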
On the technique in general: In TR-FRET formats the signal depends on donor and acceptor labels being close together.

In another assay the test system is SW620 cells. The assay can be described thus: Cellular phospho-ERK assay, SW620 cells (homozygous KRAS-G12V). The assay is classed as cell-based. As to conditions: Homo sapiens, read-out: SW620 pERK IC50. Summed up: (§2)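 Cells seeded at 10,000-15,000 per well were incubated overnight, then exposed to compound for 2 hours at 37 °C in a 10-point, 1:3 series topping at 30 μM final. Lysates were assayed by Alpha SureFire Ultra multiplex for p-ERK and total ERK; IC50 came from a 4-parameter logistic fit of their ratio.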

The target in assay [1] is KRAS-G12C (C51S/C80L/C118S) (Homo sapiens, UniProt P01116, C118S/C51S/C80L/G12C). The assay can be described thus: SOS-catalyzed nucleotide exchange assay (Procedure A, TR-FRET), KRAS-G12C. The assay is classed as biochemical. The settings on record: nucleotide exchange, Procedure A; read-out: KRAS G12C GNE IC50. Summed up: as §1
Another assay deals with MKN-1 cells. Nature of the assay: Cellular phospho-ERK assay, MKN-1 cells (amplified wild-type KRAS). The assay is classed as cell-based. As to conditions: Homo sapiens, read-out: MKN1 pERK IC50. Summed up: as §2
Another assay has as its target KRAS-WT (Homo sapiens, UniProt P01116). Nature of the assay: SOS-catalyzed nucleotide exchange assay (Procedure A, TR-FRET), KRAS-WT. As to conditions: nucleotide exchange, read-out: KRAS WT GNE IC50. Type of assay: biochemical. Summed up: as §1
Another assay has as its system AsPC-1 cells. The assay can be described thus: Cellular phospho-ERK assay, AsPC-1 cells (homozygous KRAS-G12D). The assay is classed as cell-based. The settings on record: Homo sapiens, ASPC1, 2 h, read-out: AsPC1 pERK IC50. Summed up:
as §2

The target in a further assay is KRAS-G13D (Homo sapiens, UniProt P01116, G13D). Nature of the assay: SOS-catalyzed nucleotide exchange assay (Procedure A, TR-FRET), KRAS-G13D. The assay is classed as biochemical. The settings on record: nucleotide exchange, Procedure A; read-out: KRAS G13D GNE IC50.
The next assay deals with KRAS-G12D (Homo sapiens, UniProt P01116, G12D). Nature of the assay: SOS-catalyzed nucleotide exchange assay (Procedure A, TR-FRET), KRAS-G12D. Type of assay: biochemical. The settings on record: nucleotide exchange, read-out: KRAS G12D GNE IC50. Summed up:
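Signal ratio (520/495 nm, excitation 340 nm) reports Bodipy-GDP retention on biotinylated RAS after SOS-catalyzed exchange with 3 mM GTP. SOS was 40 nM, except 160 nM for G12V. Room-temperature exchange lasted 60 min (90 min for G12V), following a 60 min compound preincubation.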

Where [2] appears, read: amplified wild-type KRAS, 2 hours.
[3] abbreviates: SW-620, 2 hours compound incubation.

Like-named read-outs stand apart in the source and are kept apart here.

Sequence of KRAS-G12C (C51S/C80L/C118S) (P01116 with tags, fused parts or gaps isoform P01116-2 G12C/C51S/C80L/C118S): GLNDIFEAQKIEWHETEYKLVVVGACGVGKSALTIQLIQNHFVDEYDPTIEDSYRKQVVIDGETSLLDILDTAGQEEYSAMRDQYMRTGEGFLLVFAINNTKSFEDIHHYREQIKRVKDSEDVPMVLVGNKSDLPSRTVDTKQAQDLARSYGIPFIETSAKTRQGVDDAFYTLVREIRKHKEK
Sequence of KRAS-G12D (P01116 with tags, fused parts or gaps isoform P01116-2 G12D): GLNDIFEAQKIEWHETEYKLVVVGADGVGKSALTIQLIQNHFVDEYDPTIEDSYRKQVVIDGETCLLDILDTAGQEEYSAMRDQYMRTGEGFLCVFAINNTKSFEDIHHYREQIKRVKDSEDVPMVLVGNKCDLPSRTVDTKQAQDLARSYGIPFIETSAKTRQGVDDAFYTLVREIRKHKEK
Sequence of KRAS-G12V (P01116 with tags, fused parts or gaps isoform P01116-2 G12V): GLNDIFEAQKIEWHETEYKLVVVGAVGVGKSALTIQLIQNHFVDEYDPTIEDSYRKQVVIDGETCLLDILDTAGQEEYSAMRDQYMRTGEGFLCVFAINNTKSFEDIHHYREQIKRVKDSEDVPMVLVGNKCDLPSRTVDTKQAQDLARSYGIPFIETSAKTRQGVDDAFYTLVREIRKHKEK
Sequence of KRAS-WT (P01116 with tags, fused parts or gaps isoform P01116-2): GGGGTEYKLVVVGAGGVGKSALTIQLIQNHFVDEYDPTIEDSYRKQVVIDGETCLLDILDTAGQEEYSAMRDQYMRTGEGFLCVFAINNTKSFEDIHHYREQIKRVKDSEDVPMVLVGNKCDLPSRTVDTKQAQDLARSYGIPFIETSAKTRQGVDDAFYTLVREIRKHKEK
Sequence of KRAS-G13D (P01116 with tags, fused parts or gaps isoform P01116-2 G13D): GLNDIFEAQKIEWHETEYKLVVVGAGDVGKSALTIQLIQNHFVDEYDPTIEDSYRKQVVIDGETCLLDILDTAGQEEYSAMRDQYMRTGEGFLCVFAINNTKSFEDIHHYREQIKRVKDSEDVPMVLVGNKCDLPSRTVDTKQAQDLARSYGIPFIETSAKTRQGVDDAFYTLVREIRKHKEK

By IC50 is commonly meant the midpoint of a concentration-inhibition curve. Consider `C=C(C)c1c(C(F)(F)F)cc2[nH]ncc2c1-c1nccc2c1sc1nc(OCC34CCCN3CC(F)C4)nc(N3CCOCC(C)(O)C3)c12` [Ex-60, (6S)-4-(2-(((2R,7aS)-2-fluorotetrahydro-1H-pyrrolizin-7a(5H)-yl)methoxy)-8-(5-(prop-1-en-2-yl)-6-(trifluoromethyl)-1H-indazol-4-yl)pyrido[4′,3′:4,5]thieno [2,3-d]pyrimidin-4-y])-6-methyl-1,4-oxazepan-6-ol], for which the IC50 stood at 18.6 nM on KRAS-G12V; 41.9 nM in the assay with SW620 cells (SW-620, KRAS-G12V, 2 hours); 22.4 nM in assay [1]; 44.5 nM with MKN-1 cells (setting [2]); 29 nM on KRAS-WT; 99.5 nM in the assay on AsPC-1 cells (KRAS-G12D, 2 hours). Moreover, the IC50 on KRAS-G13D turned out to be 15.8 nM; on KRAS-G12D, 9.46 nM.
As for `C=C(F)c1c(C(F)(F)F)cc2[nH]ncc2c1-c1nccc2c1sc1nc(OC[C@@]34CCCN3C[C@H](F)C4)nc(N3CCOC[C@@](C)(O)C3)c12` [Ex-58, (6S)-4-(2-(((2R,7aS)-2-fluorotetrahydro-1H-pyrrolizin-7a(5H)-yl)methoxy)-8-(5-(1-fluorovinyl)-6-(trifluoromethyl)-1H-indazol-4-yl)pyrido[4′,3′:4,5]thieno [2,3-d]pyrimidin-4-yl)-6-methyl-1,4-oxazepan-6-ol], the IC50 on KRAS-G12V is 13.5 nM; in the assay with SW620 cells (SW-620, KRAS-G12V, 2 hours), 36.2 nM; in assay [1] it was 16.5 nM; in the assay with MKN-1 cells (setting [2]), 35.5 nM; at KRAS-WT it was 17.6 nM; in the assay on AsPC-1 cells (KRAS-G12D, 2 hours), 57.1 nM. Besides, the results for the IC50 at KRAS-G13D and at KRAS-G12D were 10.4 nM and 5.41 nM, respectively.
With `C=C(C)c1c(Cl)cc2[nH]ncc2c1-c1nccc2c1sc1nc(OC[C@@]34CCCN3C[C@H](F)C4)nc(N3CCOC[C@@](C)(O)C3)c12` [Ex-142, (6S)-4-(8-(6-chloro-5-(prop-1-en-2-yl)-1H-indazol-4-yl)-2-(((2R,7aS)-2-fluoro-tetrahydro-1H-pyr-rolizin-7a(5H)-yl)-methoxy)pyrido [4′,3′:4,5]thieno[2,3-d]pyrimidin-4-yl)-6-methyl-1,4-oxaze-pan-6-ol], the IC50 on KRAS-G12V came out at 29.3 nM; in the assay on SW620 cells (setting [3]) it was 96.7 nM; in assay [1], 34 nM; with MKN-1 cells (2 hours compound incubation) it was 120 nM; at KRAS-WT it was 49.2 nM; in the assay on AsPC-1 cells (2 hours compound incubation) it was 82.1 nM. Besides, the half-inhibitory concentration (IC50) worked out at 31.1 nM on KRAS-G13D and 19.2 nM on KRAS-G12D.
`C[C@@]1(O)COCCN(c2nc(OC[C@@]34CCCN3C[C@H](F)C4)nc3sc4c(-c5c(C6CCC6)c(Cl)cc6[nH]ncc56)nccc4c23)C1` [Ex-69, (6S)-4-(8-(6-chloro-5-cyclobutyl-1H-indazol-4-yl)-2-(((2R,7aS)-2-fluorotetrahydro-1H-pyrrolizin-7a(5H)-yl)methoxy)pyrido[4′,3′:4,5]thi-eno[2,3-d]pyrimidin-4-yl)-6-methyl-1,4-oxazepan-6-ol]: the IC50 at KRAS-G12V was 10.2 nM; with SW620 cells (SW-620, KRAS-G12V, 2 hours), 51.9 nM; in assay [1] it was 20.4 nM; with MKN-1 cells (setting [2]), 52.7 nM; at KRAS-WT it was 28.6 nM; in the assay with AsPC-1 cells (KRAS-G12D, 2 hours), 68.5 nM. Further, the values for the IC50 at KRAS-G13D and at KRAS-G12D were 12.5 nM and 6.79 nM, respectively.
For `C=C(C)c1c(C)cc2[nH]ncc2c1-c1nncc2c1sc1nc(OC[C@@]34CCCN3C[C@H](F)C4)nc(N3CCOC[C@@](C)(O)C3)c12` [Ex-278], the half-inhibitory concentration (IC50) on KRAS-G12V amounted to 30.4 nM; in the assay with SW620 cells (SW-620, KRAS-G12V, 2 hours), 103 nM; in assay [1], 74.9 nM; in the assay on MKN-1 cells (setting [2]) it was 98.2 nM; on KRAS-WT, 46 nM; in the assay on AsPC-1 cells (KRAS-G12D, 2 hours), 364 nM. Besides, the IC50 on KRAS-G13D worked out at 20.3 nM; on KRAS-G12D it was 14.6 nM.
For `C[C@@]1(O)COCCN(c2nc(OC[C@@]34CCCN3C[C@H](F)C4)nc3sc4c(-c5c(C6CC6)c(Cl)cc6[nH]ncc56)nccc4c23)C1` [Ex-144, (6S)-4-(8-(6-chloro-5-cyclopropyl-1H-indazol-4-yl)-2-(((2R,7aS)-2-fluoro-tetrahydro-1H-pyr-rolizin-7a(5H)-yl)-methoxy)pyrido [4′,3′:4,5]thieno[2,3-d]pyrimidin-4-yl)-6-methyl-1,4-oxaze-pan-6-ol], the 50% inhibitory concentration (IC50) at KRAS-G12V turned out to be 14.3 nM; with SW620 cells (setting [3]), 73 nM; in assay [1], 46 nM; with MKN-1 cells (2 hours compound incubation), 53.2 nM; on KRAS-WT it was 14.6 nM; with AsPC-1 cells (2 hours compound incubation), 41.7 nM. For the same compound, the half-inhibitory concentration (IC50) on KRAS-G13D amounted to 10.7 nM; at KRAS-G12D, 6.2 nM.
`CC(C)c1c(Cl)cc2[nH]ncc2c1-c1nccc2c1sc1nc(OC[C@@]34CCCN3C[C@H](F)C4)nc(N3CCOC[C@@](C)(O)C3)c12` [Ex-145, (6S)-4-(8-(6-chloro-5-isopropyl-1H-ind-azol-4-yl)-2-(((2R, 7aS)-2-fluorotetra-hydro-1H-pyrrol-izin-7a(5H)-yl)meth-oxy)pyrido[4′,3′:4,5]thieno[2,3-d]pyr-imidin-4-yl)-6-meth-yl-1,4-oxazepan-6-ol]: the IC50 at KRAS-G12V amounted to 73.2 nM; with SW620 cells (setting [3]) it was 120 nM; in assay [1], 44.3 nM; in the assay with MKN-1 cells (2 hours compound incubation), 155 nM; on KRAS-WT it was 58.9 nM; in the assay on AsPC-1 cells (2 hours compound incubation), 119 nM. Further, the concentration for half-maximal inhibition (IC50) is 27.8 nM at KRAS-G13D and 34.3 nM on KRAS-G12D.
As to `C[C@@]1(O)COCCN(c2nc(OC[C@@]34CCCN3C/C(=C\F)C4)nc3sc4c(-c5c(C6(F)CC6)c(C(F)(F)F)cc6[nH]ncc56)nccc4c23)C1` [Ex-56, (6S)-4-(8-(5-(1-fluorocyclopropyl)-6-(trifluoromethyl)-1H-indazol-4-yl)-2-(((S,Z)-2-(fluoromethylene)tetrahy-dro-1H-pyrrolizin-7a(5H)-yl)methoxy)pyrido[4′,3′:4,5]thi-eno[2,3-d]pyrimidin-4-yl)-6-methyl-1,4-oxazepan-6-ol], the IC50 amounted to 32.6 nM at KRAS-G12V; 57.5 nM with SW620 cells (SW-620, KRAS-G12V, 2 hours); 128 nM in assay [1]; 45.6 nM in the assay with MKN-1 cells (setting [2]); 26.5 nM at KRAS-WT; 48.9 nM in the assay with AsPC-1 cells (KRAS-G12D, 2 hours). The concentration for half-maximal inhibition (IC50) was 22.6 nM at KRAS-G13D and 9.15 nM on KRAS-G12D.
As to `Cc1cc2[nH]ncc2c(-c2nccc3c2sc2nc(OC[C@@]45CCCN4C[C@H](F)C5)nc(N4CCOC[C@@](C)(O)C4)c23)c1C1CC1` [Ex-141, (6S)-4-(8-(5-cyclo-propyl-6-methyl-1H-indazol-4-yl)-2-(((2R,7aS)-2-fluoro-tetrahydro-1H-pyr-rolizin-7a(5H)-yl)-methoxy)pyrido [4′,3′:4,5]thieno[2,3-d]pyrimidin-4-yl)-6-methyl-1,4-oxaze-pan-6-ol], the IC50 on KRAS-G12V was 16.5 nM; with SW620 cells (setting [3]) it was 131 nM; in assay [1] it was 87.7 nM; in the assay with MKN-1 cells (2 hours compound incubation) it was 53.1 nM; on KRAS-WT, 18.1 nM; in the assay with AsPC-1 cells (2 hours compound incubation), 38 nM. Besides, the figures for the IC50 at KRAS-G13D and on KRAS-G12D were 14.4 nM and 7.5 nM, respectively.
On to `C=C1CN2C[C@H](F)C[C@@]2(COc2nc(N3CCOC[C@@](C)(O)C3)c3c(n2)sc2c(-c4c(C5CC5)c(Cl)cc5[nH]ncc45)nccc23)C1` [Ex-223, (6S)-4-(8-(6-chloro-5-cyclopropyl-1H-indazol-4-yl)-2-(((2R,7aR)-2-fluoro-6-methylenetetra-hydro-1H-pyrrol-izin-7a(5H)-yl)methoxy)pyrido [4′,3′:4,5]thieno[2,3-d]pyrimidin-4-yl)-6-methyl-1,4-oxaze-pan-6-ol], for which the IC50 at KRAS-G12V came to 34.1 nM; in the assay on SW620 cells (setting [3]), 23.6 nM; in assay [1], 111 nM; in the assay on MKN-1 cells (2 hours compound incubation), 42.9 nM; on KRAS-WT, 24.5 nM; with AsPC-1 cells (2 hours compound incubation) it was 63.8 nM. Moreover, the IC50 came out at 37.6 nM on KRAS-G13D and 9.27 nM on KRAS-G12D.
As to `C[C@@]1(O)COCCN(c2nc(OC[C@@]34CCCN3C[C@H](F)C4)nc3sc4c(-c5c(C6CC6)c(C(F)(F)F)cc6[nH]ncc56)nccc4c23)C1` [Ex-76, (6S)-4-(8-(5-cyclopropyl-6-(trifluoromethyl)-1H-indazol-4-yl)-2-(((2R,7aS)-2-fluorotetrahydro-1H-pyrrolizin-7a(5H)-yl)methoxy)pyrido[4′,3′:4,5]thi-eno[2,3-d]pyrimidin-4-yl)-6-methyl-1,4-oxazepan-6-ol], the half-inhibitory concentration (IC50) stood at 20.4 nM on KRAS-G12V; 18.5 nM in the assay on SW620 cells (SW-620, KRAS-G12V, 2 hours); 55.8 nM in assay [1]; 28.1 nM in the assay with MKN-1 cells (setting [2]); 8.47 nM on KRAS-WT; 24.1 nM in the assay with AsPC-1 cells (KRAS-G12D, 2 hours). Moreover, the half-maximal inhibitory concentration (IC50) at KRAS-G13D was found to be 7.22 nM; at KRAS-G12D, 5.46 nM.
